Data as given in patent publication US20030162722A1, “Pharmaceutical compositions comprising acryloyl distamycin derivatives and topoisomerase I and II inhibitors” (priority 2000, published 2003).

System: disseminated L1210 murine leukemia
Assay: Antileukemic activity against disseminated L1210 murine leukemia
Conditions: PNU 166196 0.52 mg/kg; for ILS % (increase in life span) / Tox (number of toxic deaths/number of mice): L1210 cells 10^5/mouse CD2F1 IV day 0, treatment iv day +1, doxorubicin 10 mg/kg (given 2 h after PNU 166196), alone or combined at the same doses
Source text: For these experiments, PNU 166196 and doxorubicin were solubilized in water for injection.

Structure (SMILES)	ILS % (increase in life span)	Tox (number of toxic deaths/number of mice)	toxicity (in words) (single agents, iv day +1, doxorubicin 10 mg/kg)
COc1cccc2c1C(=O)c1c(O)c3c(c(O)c1C2=O)C[C@@](O)(C(=O)CO)C[C@@H]3O[C@H]1C[C@H](N)[C@H](O)[C@H](C)O1 [Doxorubicin, doxorubicin, reference compound]	58%	0/10	
C=C(Br)C(=O)Nc1cc(C(=O)Nc2cc(C(=O)Nc3cc(C(=O)Nc4cc(C(=O)NCCNC(=N)N)n(C)c4)n(C)c3)n(C)c2)n(C)c1.Cl [PNU 166196, N-(5-{[(5-{[(5-{[(2-{[amino(imino)methyl]amino}ethyl)amino]carbonyl}-1-methyl-1H-pyrrol-3-yl)amino]carbonyl}-1-methyl-1H-pyrrol-3-yl)amino]carbonyl}-1-methyl-1H-pyrrol-3-yl)-4-[(2-bromoacryloyl)amino]-1-methyl-1H-pyrrole-2-carboxamide hydrochloride]	33%	0/10	without toxicity
